Assay results reported in patent publication US20080125451A1, “VINORELBINE DERIVATIVES” (AMR TECHNOLOGY, INC., priority 2006, published 2008).

Test system: HeLa Cells
Test: HeLa GI50 determination (SRB growth inhibition)
Assay type: cell-based
Conditions: 48 h; human cervical carcinoma cell line HeLa S-3; 2 days of treatment; sulforhodamine B staining
Procedure: A. HeLa GI50 Determinations
Growth inhibition (GI50) values were measured on the human cervical carcinoma cell line, HeLa S-3, which were selected for growth on plastic. The HeLa cell assay was based on the description of Skehan et al., J. Natl. Cancer Inst., 82:1107-12 (1990), which is hereby incorporated by reference in its entirety. HeLa cells were plated at 2×10^4 cells/well in 96 well plates. One day later, a control plate was fixed by the addition of TCA to 5%. After five rinses with tap water, the plate was air-dried and stored at 4° C. Test compounds were added to the remaining plates at 10-fold dilutions. Two days later, all plates were fixed as described above. Cells were then stained by the addition of 100 μL per well of 0.4% sulforhodamine B (SRB) in 1% acetic acid for 30 min at 4° C. Wells were then quickly rinsed 5× with 1% acetic acid and allowed to air dry. The SRB was then solubilized by the addition of 100 μL per well of unbuffered 10 mM Tris base. Dye was quantified by measuring absorbance at 490 nm on a Molecular Devices microplate reader. Growth inhibition was calculated according to the following equation: GI=100×(T−T0)/(C−T0), where the optical density (OD) of the test well after 2 days of treatment was T, the OD of the wells in the control plate on day 0 was T0 and C was the OD of untreated wells. […]

| SMILES | GI50 [nM] |
| --- | --- |
| CCc1ccc2[nH]c3c(c2c1)CN1CC(C(C)(F)F)C[C@@H](C1)C[C@]3(C(=O)OC)c1cc2c(cc1OC)N(C)[C@H]1[C@@](O)(C(=O)OC)[C@H](OC(C)=O)[C@]3(CC)C=CCN4CC[C@]21[C@@H]43 (some centres unmarked) [Example 3, 11′-Ethylvinflunine] | 170 |
| CC[C@]12C=CCN3CC[C@@]4(c5cc([C@@]6(C(=O)OC)C[C@H]7CC(C(C)(F)F)CN(Cc8c6[nH]c6ccc(SC)cc86)C7)c(OC)cc5N(C)[C@H]4[C@@](O)(C(=O)OC)[C@@H]1OC(C)=O)[C@@H]32 (some centres unmarked) [Example 12, 11′-(Methylsulfanyl)vinflunine] | 6.93 |
